# Source: patent US9169291B2, “Covalent conjugates between endoperoxides and transferrin and lactoferrin receptor-binding agents” (University of Washington, priority 2006, dated 2015)
# Where two headings read alike, the source gives them in different places.
# How the values were obtained:
# [1] = system: DAOY human Medulloblastoma cells; conditions: for relative effectiveness on medulloblastoma cells (DAOY cells): two versus one artemisinin moiety
# Description: DAOY human Medulloblastoma cells (10,000 cells/200 μL) were seeded on a 96 well plate and incubated for 24 h at 37° C. Cell culture medium was removed after 24 h and 150 μL of medium with different combinations of drug treatment was added. Human holotransferrin (20 μM) was added to half of the samples. Treatment medium was removed after 48 h, and 100 μL of cell medium was added, and the following protocol was used to determine cell viability: (1) 10 μL of 12 mM MTT reagent was added to each well; (2) the cultures were incubated at 37° C. for 4 h; (3) 100 μL of isopropanol was added to each well to lyse the cells and then incubated at 4° C. for 30 min; (4) after incubation each well was plunged (3×200 μL) to ensure the cells were lysed; (5) the samples were then centrifuged at 13,000 rpm in a microcentrifuge for 3 min at room temperature; and (6) 100 μL of the supernatant was read in a plate reader at λ=570 nm.
# [2] = system: human Molt-4 lymphobastoid leukemia cells; test: cells; conditions: for IC50: read-out: IC50 on Molt-4 cells
# Description: (§1) The artemisinin-tagged peptide HAIYPRH was tested on human Molt-4 lymphobastoid leukemia cells and compared with normal human lymphocytes, as follows. […] Cell viability was determined before an experiment by using trypan blue dye exclusion. After an initial counting of cells, human holotransferrin (Sigma Chemicals, St. Louis, Mo.) was added to samples of the cells. […] An equal volume of medium was added to control samples. […] At 24, 48 and 72 hrs after the addition of the tagged peptide, cell concentrations in appropriate flasks were counted using a counting hemocytometer chamber and microscope. In a similar set up, the same procedures were carried out on normal human lymphocytes.
# normal human lymphocytes = test: Toxicity of artemisinin-tagged peptide in normal lymphocytes (cell counting)
# Description: as §1
# human leukemia cells = conditions: cited from earlier work
# [3] = cited from earlier work
structure (smiles),measurement,setting,value
CC[C@H](C)[C@H](NC(=O)[C@H](C)NC(=O)[C@H](Cc1c[nH]cn1)NC(=O)[C@H](CCCCNC(=O)c1ccc(/C=N/NC(=O)c2ccc(COC3OC4O[C@@]5(C)CCC6[C@H](C)CCC([C@H]3C)[C@@]46OO5)cc2)cc1)NC(=O)c1ccc(/C=N/NC(=O)c2ccc(COC3OC4O[C@@]5(C)CCC6[C@H](C)CCC([C@H]3C)[C@@]46OO5)cc2)cc1)C(=O)N[C@@H](Cc1ccc(O)cc1)C(=O)N1CCC[C@H]1C(=O)N[C@@H](CCCNC(=N)N)C(=O)N[C@@H](Cc1c[nH]cn1)C(N)=O (stereo partly shown) [ART2-peptide],effect on medulloblastoma cells (DAOY cells),"[1]; 48 h treatment, MTT",effective
same,relative effectiveness on medulloblastoma cells (DAOY cells),[1],more effective than ART-peptide
same,relative effectiveness on medulloblastoma cells (DAOY cells),[1]; listed as peptide containing two artemisinin moieties,more potent than peptide containing one moiety
same,change in activity after storage in DMSO,[2]; kept in DMSO at room temperature for one month,essentially no change in activity
same,IC50,"[2]; at 72 hrs, holotransferrin 12 μM",0.86 ± 0.1 µM
CC[C@H](C)[C@H](NC(=O)[C@H](C)NC(=O)[C@H](Cc1c[nH]cn1)NC(=O)c1ccc(/C=N/NC(=O)c2ccc(COC3OC4O[C@@]5(C)CCC6[C@H](C)CCC([C@H]3C)[C@@]46OO5)cc2)cc1)C(=O)N[C@@H](Cc1ccc(O)cc1)C(=O)N1CCC[C@H]1C(=O)N[C@@H](CCCNC(=N)N)C(=O)N[C@@H](Cc1c[nH]cn1)C(N)=O (stereo partly shown) [ART-peptide],effect on normal lymphocytes (cell viability),"normal human lymphocytes; 3.1, 6.2, 12.4 μM, 24, 48 and 72 hours",without affecting normal lymphocytes
C[C@@H]1CC[C@H]2[C@@H](C)C(=O)O[C@@H]3O[C@@]4(C)CC[C@@H]1[C@]32OO4 [Artemisinin],therapeutic index (toxicity towards cancer cells versus normal cells),human leukemia cells,approximately 100
"C[C@H]1[C@@H](O)O[C@@H]2O[C@@]3(C)CC[C@H]4[C@H](C)CC[C@@H]1[C@@]24OO3 [DHA, dihydroartemisinin]",IC50,"normal human lymphocytes; Homo sapiens, Lymphocyte, read-out: IC50 for normal leukocytes",43 ± 22 µM
same,IC50,"[2]; Homo sapiens, MOLT-4, 72 h",5.3 ± 0.26 µM
same,LD50 (μM) (fresh sample),"[2]; fresh sample, after 72 hr",5.3 ± 0.26 µM
same,LD50 (μM) (after stored in DMSO at room temperature for 30 days),"[2]; stored in DMSO at room temperature for 30 days, after 72 hr",5.01 ± 0.35 µM
CO[C@H]1O[C@@H]2O[C@@]3(C)CC[C@H]4[C@H](C)CC[C@@H]([C@H]1C)[C@@]24OO3 [artemether],adverse side effects,"[3]; patient with pituitary macroadenoma, oral, 12 months",without any observed adverse side effects
C[C@H]1[C@H](OC(=O)CCC(=O)O)O[C@@H]2O[C@@]3(C)CC[C@H]4[C@H](C)CC[C@@H]1[C@@]24OO3 [artesunate],adverse side effects,"[3]; cancer patient, 9 months (i.m. 60 mg/day 15 days; oral 50 mg per day 8.5 months)",No apparent adverse side effects
